Laboratory results taken from publication PMC8716824, “Design, Synthesis and Anti-Lung Cancer Evaluation of 1, 2, 3-Triazole Tethered Dihydroartemisinin-Isatin Hybrids” (Frontiers in Pharmacology, 2021).
Where two headings read alike, the source gives them in different places.

Tests used:
A549 lung cancer cells = assay: MTT antiproliferative assay, A549; format: cell-based
Protocol: (§1) The antiproliferative activity of 1,2,3-triazole tethered dihydroartemisinin-isatin hybrids 8a-c and 9a-k against A549, multidrug-resistant A549/DOX and A549/DDP lung cancer cell lines as well as cytotoxicity towards mouse embryonic fibroblast cells NIH/3T3 were assessed by 3-(4,5-dimethylthiazol-2-yl)-2,5-diphenyltetrazolium bromide (MTT) assay, and half maximal inhibitory concentration (IC50) values were listed in Table 2. A549, A549/DOX, and A549/DDP lung cancer cells (2 × 10^3) were plated in each well of a 96-well plate and were allowed to adhere and spread for 24 h. The 1,2,3-triazole tethered dihydroartemisinin-isatin hybrids 8a-c and 9a-k were added to a final concentration of 100 μM, and the cells were cultured for 24 h at 37°C. 3-(4,5-dimethyl-2-thiazolyl)-2,5-diphenyltetrazolium bromide (MTT) solution (10 µL) was added to each well, and the cultures were incubated for an additional 4 h. A further 100 µL of […] was added and incubation continued overnight. The absorbance at 540 nm was determined in each well with a 96-well plate reader. The growth of the treated cells was compared with that of untreated cells.

[1] = system: doxorubicin-resistant A549 (A549/DOX) lung cancer cells; assay: MTT antiproliferative assay, A549/DOX; format: cell-based
Protocol: as §1

[2] = system: mouse embryonic fibroblast cells NIH/3T3; assay: MTT cytotoxicity assay, NIH/3T3; format: cell-based; conditions: for SI (selectivity index): IC50(NIH/3T3)/IC50(A549); for IC50: cytotoxicity, NIH/3T3 cells, MTT (called CC50 in method)
Protocol: The antiproliferative activity of 1,2,3-triazole tethered dihydroartemisinin-isatin hybrids 8a-c and 9a-k against A549, multidrug-resistant A549/DOX and A549/DDP lung cancer cell lines as well as cytotoxicity towards mouse embryonic fibroblast cells NIH/3T3 were assessed by 3-(4,5-dimethylthiazol-2-yl)-2,5-diphenyltetrazolium bromide (MTT) assay, and half maximal inhibitory concentration (IC50) values were listed in Table 2.
The cytotoxicity (CC50) of the synthesized 1,2,3-triazole tethered dihydroartemisinin-isatin hybrids 8a-c and 9a-k were examined by the MTT assay in mouse embryonic fibroblast cells NIH/3T3. The compounds were dissolved in DMSO with concentrations from 1,024 to 1 μg/ml. The NIH/3T3 cells were maintained in culture medium at 37°C under 5% CO2 atmosphere. Cells were seeded in 96-well plates (1 × 10^4 cell per well) and allowed to recover for 24 h. After 72 h of exposure, cells were harvested and cell viability was assessed by MTT assay. The CC50 values were calculated by Bliss analy.

[3] = Stability in human liver microsomes; format: in vitro ADME
Protocol: (§2) The metabolic stability of selected hybrids 8a,c and 9i was assessed in mouse and human microsomes, and the results were listed in Table 3.

[4] = Stability in mouse liver microsomes; format: in vitro ADME
Protocol: as §2

[5] = system: A549, A549/DOX and A549/DDP lung cancer cell lines; assay: MTT antiproliferative assay, ranges pooled over lung cancer cell lines; format: cell-based
Protocol: as §1

[6] = system: cisplatin-resistant A549 (A549/DDP) lung cancer cells; assay: MTT antiproliferative assay, A549/DDP; format: cell-based
Protocol: as §1

[7] = range over the three lung cancer cell lines, read-out: IC50, range over A549, A549/DOX and A549/DDP

## C[C@@H]1CC[C@H]2[C@@H](C)C(OCc3cn(CCN4C(=O)C(=NO)c5cc(F)ccc54)nn3)O[C@@H]3O[C@@]4(C)CC[C@@H]1[C@]32OO4 (stereo partly drawn) [9i, 5-fluoro-3-(hydroxyimino)-1-(2-(4-((((3R,5aS,6R,8aS,9R,12R,12aR)-3,6,9-trimethyldecahydro-12H-3,12-epoxy[1,2]dioxepino[4,3-i]isochromen-10-yl)oxy)methyl)-1H-1,2,3-triazol-1-yl)ethyl)indolin-2-one]
A549 lung cancer cells; Homo sapiens
  IC50: 9.1 µM
[1]; Homo sapiens
  IC50: 15.9 µM
[2]
  SI (selectivity index): >11.0
[2]; Mus musculus, NIH3T3
  IC50: > 100 µM
[3]
  Liver microsomes, Human: 60%
[4]
  Liver microsomes, Mouse: 46%
[5]; Homo sapiens, range over A549 and A549/DOX, read-out: IC50, range over A549 and A549/DOX
  IC50: 7.54 to 15.9 µM
[5]; [7]
  IC50: 9.1 to 15.9 µM
[6]; A549/DDP
  IC50: 14.3 µM

## CON=C1C(=O)N(CCn2cc(COC3O[C@@H]4O[C@@]5(C)CC[C@H]6[C@H](C)CC[C@@H]([C@H]3C)[C@@]46OO5)nn2)c2ccc(OC)cc21 (stereo partly drawn) [9f, 5-methoxy-3-(methoxyimino)-1-(2-(4-((((3R,5aS,6R,8aS,9R,12R,12aR)-3,6,9-trimethyldecahydro-12H-3,12-epoxy[1,2]dioxepino[4,3-i]isochromen-10-yl)oxy)methyl)-1H-1,2,3-triazol-1-yl)ethyl)indolin-2-one]
A549 lung cancer cells; Homo sapiens
  IC50: 65.4 µM
[1]; Homo sapiens
  IC50: 79.5 µM
[2]
  SI (selectivity index): >1.5
[2]; Mus musculus, NIH3T3
  IC50: > 100 µM
[6]; A549/DDP
  IC50: 51.8 µM

## COc1ccc2c(c1)C(=NOCc1ccccc1)C(=O)N2CCn1cc(COC2O[C@@H]3O[C@@]4(C)CC[C@H]5[C@H](C)CC[C@@H]([C@H]2C)[C@@]35OO4)nn1 (stereo partly drawn) [9h, 3-((benzyloxy)imino)-5-methoxy-1-(2-(4-((((3R,5aS,6R,8aS,9R,12R,12aR)-3,6,9-trimethyldecahydro-12H-3,12-epoxy[1,2]dioxepino[4,3-i]isochromen-10-yl)oxy)methyl)-1H-1,2,3-triazol-1-yl)ethyl)indolin-2-one]
A549 lung cancer cells; Homo sapiens
  IC50: 44.7 µM
[1]; Homo sapiens
  IC50: 77.7 µM
[2]
  SI (selectivity index): >2.2
[2]; Mus musculus, NIH3T3
  IC50: > 100 µM
[6]; A549/DDP
  IC50: 59.4 µM

## N.N.[Cl][Pt][Cl] [cisplatin, reference compound]
A549 lung cancer cells
  IC50: 9.38 µM
[1]
  IC50: 19.7 µM
[2]
  IC50: > 100 µM
[5]; range over A549 and A549/DOX, read-out: IC50, range over A549 and A549/DOX
  IC50: 9.38 to 19.7 µM
[5]; [7]
  IC50: 9.38 to 66.9 µM
[6]
  IC50: 66.9 µM

## C[C@@H]1CC[C@H]2[C@@H](C)C(=O)O[C@@H]3O[C@@]4(C)CC[C@@H]1[C@]32OO4 [Artemisinin]
A549 lung cancer cells; Homo sapiens
  IC50: > 100 µM
[1]; Homo sapiens
  IC50: > 100 µM
[2]; Mus musculus, NIH3T3
  IC50: > 100 µM
[5]; [7]
  IC50: > 100 µM
[6]; A549/DDP
  IC50: > 100 µM

## CCON=C1C(=O)N(CCn2cc(COC3O[C@@H]4O[C@@]5(C)CC[C@H]6[C@H](C)CC[C@@H]([C@H]3C)[C@@]46OO5)nn2)c2ccc(F)cc21 (stereo partly drawn) [9k, 3-(ethoxyimino)-5-fluoro-1-(2-(4-((((3R,5aS,6R,8aS,9R,12R,12aR)-3,6,9-trimethyldecahydro-12H-3,12-epoxy[1,2]dioxepino[4,3-i]isochromen-10-yl)oxy)methyl)-1H-1,2,3-triazol-1-yl)ethyl)indolin-2-one]
A549 lung cancer cells; Homo sapiens
  IC50: 15.8 µM
[1]; Homo sapiens
  IC50: 31.1 µM
[2]
  SI (selectivity index): >6.3
[2]; Mus musculus, NIH3T3
  IC50: > 100 µM
[6]; A549/DDP
  IC50: 28.7 µM

## C[C@@H]1CC[C@H]2[C@@H](C)C(OCc3cn(CCN4C(=O)C(=NNC(N)=S)c5ccccc54)nn3)O[C@@H]3O[C@@]4(C)CC[C@@H]1[C@]32OO4 (stereo partly drawn) [9a, 2-(2-oxo-1-(2-(4-((((3R,5aS,6R,8aS,9R,12R,12aR)-3,6,9-trimethyldecahydro-12H-3,12-epoxy[1,2]dioxepino[4,3-i]isochromen-10-yl)oxy)methyl)-1H-1,2,3-triazol-1-yl)ethyl)indolin-3-ylidene)hydrazine-1-carbothioamide]
A549 lung cancer cells; Homo sapiens
  IC50: 16.3 µM
[1]; Homo sapiens
  IC50: 38.4 µM
[2]
  SI (selectivity index): >6.1
[2]; Mus musculus, NIH3T3
  IC50: > 100 µM
[6]; A549/DDP
  IC50: 30.9 µM

## C[C@H]1[C@@H](O)O[C@@H]2O[C@@]3(C)CC[C@H]4[C@H](C)CC[C@@H]1[C@@]24OO3 [DHA, Dihydroartemisinin]
A549 lung cancer cells; Homo sapiens
  IC50: 69.4 µM
[1]; Homo sapiens
  IC50: 88 µM
[2]
  SI (selectivity index): >1.4
[2]; Mus musculus, NIH3T3
  IC50: > 100 µM
[5]; [7]
  IC50: 69.4 to 88 µM
[6]; A549/DDP
  IC50: 75.9 µM

## C[C@@H]1CC[C@H]2[C@@H](C)C(OCc3cn(CCN4C(=O)C(=NO)c5ccccc54)nn3)O[C@@H]3O[C@@]4(C)CC[C@@H]1[C@]32OO4 (stereo partly drawn) [9b, 3-(hydroxyimino)-1-(2-(4-((((3R,5aS,6R,8aS,9R,12R,12aR)-3,6,9-trimethyldecahydro-12H-3,12-epoxy[1,2]dioxepino[4,3-i]isochromen-10-yl)oxy)methyl)-1H-1,2,3-triazol-1-yl)ethyl)indolin-2-one]
A549 lung cancer cells; Homo sapiens
  IC50: 12 µM
[1]; Homo sapiens
  IC50: 26.1 µM
[2]
  SI (selectivity index): >8.3
[2]; Mus musculus, NIH3T3
  IC50: > 100 µM
[6]; A549/DDP
  IC50: 30.3 µM

## C[C@@H]1CC[C@H]2[C@@H](C)C(OCc3cn(CCN4C(=O)C(=NOCc5ccccc5)c5ccccc54)nn3)O[C@@H]3O[C@@]4(C)CC[C@@H]1[C@]32OO4 (stereo partly drawn) [9e, 3-((benzyloxy)imino)-1-(2-(4-((((3R,5aS,6R,8aS,9R,12R,12aR)-3,6,9-trimethyldecahydro-12H-3,12-epoxy[1,2]dioxepino[4,3-i]isochromen-10-yl)oxy)methyl)-1H-1,2,3-triazol-1-yl)ethyl)indolin-2-one]
A549 lung cancer cells; Homo sapiens
  IC50: 16.3 µM
[1]; Homo sapiens
  IC50: 31.4 µM
[2]
  SI (selectivity index): >6.1
[2]; Mus musculus, NIH3T3
  IC50: > 100 µM
[6]; A549/DDP
  IC50: 29.9 µM

## CON=C1C(=O)N(CCn2cc(COC3O[C@@H]4O[C@@]5(C)CC[C@H]6[C@H](C)CC[C@@H]([C@H]3C)[C@@]46OO5)nn2)c2ccccc21 (stereo partly drawn) [9c, 3-(methoxyimino)-1-(2-(4-((((3R,5aS,6R,8aS,9R,12R,12aR)-3,6,9-trimethyldecahydro-12H-3,12-epoxy[1,2]dioxepino[4,3-i]isochromen-10-yl)oxy)methyl)-1H-1,2,3-triazol-1-yl)ethyl)indolin-2-one]
A549 lung cancer cells; Homo sapiens
  IC50: 22.7 µM
[1]; Homo sapiens
  IC50: 19.5 µM
[2]
  SI (selectivity index): >4.4
[2]; Mus musculus, NIH3T3
  IC50: > 100 µM
[6]; A549/DDP
  IC50: 27.4 µM

## COc1ccc2c(c1)C(=O)C(=O)N2CCn1cc(COC2O[C@@H]3O[C@@]4(C)CC[C@H]5[C@H](C)CC[C@@H]([C@H]2C)[C@@]35OO4)nn1 (stereo partly drawn) [8b, 5-methoxy-1-(2-(4-((((3R,5aS,6R,8aS,9R,12R,12aR)-3,6,9-trimethyldecahydro-12H-3,12-epoxy[1,2]dioxepino[4,3-i]isochromen-10-yl)oxy)methyl)-1H-1,2,3-triazol-1-yl)ethyl)indoline-2,3-dione]
A549 lung cancer cells; Homo sapiens
  IC50: 21.6 µM
[1]; Homo sapiens
  IC50: 32 µM
[2]
  SI (selectivity index): >4.6
[2]; Mus musculus, NIH3T3
  IC50: > 100 µM
[6]; A549/DDP
  IC50: 19.5 µM

## CON=C1C(=O)N(CCn2cc(COC3O[C@@H]4O[C@@]5(C)CC[C@H]6[C@H](C)CC[C@@H]([C@H]3C)[C@@]46OO5)nn2)c2ccc(F)cc21 (stereo partly drawn) [9j, 5-fluoro-3-(methoxyimino)-1-(2-(4-((((3R,5aS,6R,8aS,9R,12R,12aR)-3,6,9-trimethyldecahydro-12H-3,12-epoxy[1,2]dioxepino[4,3-i]isochromen-10-yl)oxy)methyl)-1H-1,2,3-triazol-1-yl)ethyl)indolin-2-one]
A549 lung cancer cells; Homo sapiens
  IC50: 9.61 µM
[1]; Homo sapiens
  IC50: 13 µM
[2]
  SI (selectivity index): >10.4
[2]; Mus musculus, NIH3T3
  IC50: > 100 µM
[6]; A549/DDP
  IC50: 38.2 µM

## CCON=C1C(=O)N(CCn2cc(COC3O[C@@H]4O[C@@]5(C)CC[C@H]6[C@H](C)CC[C@@H]([C@H]3C)[C@@]46OO5)nn2)c2ccc(OC)cc21 (stereo partly drawn) [9g, 3-(ethoxyimino)-5-methoxy-1-(2-(4-((((3R,5aS,6R,8aS,9R,12R,12aR)-3,6,9-trimethyldecahydro-12H-3,12-epoxy[1,2]dioxepino[4,3-i]isochromen-10-yl)oxy)methyl)-1H-1,2,3-triazol-1-yl)ethyl)indolin-2-one]
A549 lung cancer cells; Homo sapiens
  IC50: 73.8 µM
[1]; Homo sapiens
  IC50: 45 µM
[2]
  SI (selectivity index): >1.3
[2]; Mus musculus, NIH3T3
  IC50: > 100 µM
[6]; A549/DDP
  IC50: 61.7 µM

## CCON=C1C(=O)N(CCn2cc(COC3O[C@@H]4O[C@@]5(C)CC[C@H]6[C@H](C)CC[C@@H]([C@H]3C)[C@@]46OO5)nn2)c2ccccc21 (stereo partly drawn) [9d, 3-(ethoxyimino)-1-(2-(4-((((3R,5aS,6R,8aS,9R,12R,12aR)-3,6,9-trimethyldecahydro-12H-3,12-epoxy[1,2]dioxepino[4,3-i]isochromen-10-yl)oxy)methyl)-1H-1,2,3-triazol-1-yl)ethyl)indolin-2-one]
A549 lung cancer cells; Homo sapiens
  IC50: 25.6 µM
[1]; Homo sapiens
  IC50: 20.8 µM
[2]
  SI (selectivity index): >3.9
[2]; Mus musculus, NIH3T3
  IC50: > 100 µM
[6]; A549/DDP
  IC50: 33.7 µM
